# Data as given in patent US8247352B2, “Method of inhibiting ethylene production in plants” (The Regents of the University of California, priority 2005, dated 2012).
# Where “and” joins values, the source holds several entries; their conditions need not be identical. Identical values can stand only once.
# What was measured:
# ACC Oxidase = biological target: T1, ACC Oxidase (Solanum lycopersicum, UniProt P05116); assay: Stoichiometry of O2 consumed to product formed (CO2 or ethylene), extent of uncoupling; format: biochemical, Lycopersicon esculentum; conditions: for Ratio O2 consumed to product formed, O2:CO2 / Ratio O2 consumed to product formed, O2:ethylene: saturating substrate, 30 mM ascorbate, ambient O2; for Ratio O2 consumed to product formed, O2:CO2: [14C]-CO2 trapping; for Ratio O2 consumed to product formed, O2:ethylene: ethylene by GC-FID
# T1 construct: made in house; host or cells: Escherichia coli BL21 (DE3)pLysS
# T1 sequence (P05116 whole entry): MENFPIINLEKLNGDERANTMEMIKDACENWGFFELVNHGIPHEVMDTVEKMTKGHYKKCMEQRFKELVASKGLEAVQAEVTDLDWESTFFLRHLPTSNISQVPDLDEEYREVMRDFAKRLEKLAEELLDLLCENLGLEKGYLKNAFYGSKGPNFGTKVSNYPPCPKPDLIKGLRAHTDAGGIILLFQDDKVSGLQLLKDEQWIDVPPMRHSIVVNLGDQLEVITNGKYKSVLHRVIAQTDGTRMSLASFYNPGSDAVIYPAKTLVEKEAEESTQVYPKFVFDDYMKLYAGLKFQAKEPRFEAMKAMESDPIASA
# Protocol: Oxygen consumption was measured using a YSI model 5300 biological oxygen monitor as described above. Reactions contained D-[1-^14C]-Ala, [carboxyl-^14C]-ACC, α-[1-^14C]-AIB, or [1-^14C]-Gly in trace amounts. […] Reactions (1 mL) were initiated with a pre-incubated mixture of ACCO:Fe(II) in a 2:1 ratio. This was done to minimize free Fe(II) in solution. Final concentrations were typically 10 μM ACCO and 5 μM Fe(II). Reactions were quenched by addition of 3 μL of 0.1 M 3-[2-Pyridyl]-5,6-diphenyl-1,2,4-triazine-4,4′-disulfonic acid (FERROZINE®) and the O2 consumption rate was allowed to stabilize. The reaction (0.8 mL) was removed with a gas-tight syringe and injected into a small vial containing 0.1 mL 10% HCl that was inside a larger vial containing the CO2 trap (see above). The acidified reaction mixture and the CO2 trap were stirred for 2 h, and radioactivity from [^14C]—CO2 was determined as described above. Controls measuring the efficiency of the CO2 trap were done by injecting a known amount of [^14C]—NaHCO3 into the vial containing acid, as above, and measuring the amount of [^14C]—CO2 recovered. Efficiency of trapping was routinely ˜98%.
# O2 consumption was measured using an Ocean Optics FOXY fiber optic oxygen sensor, with the fiber optic probe inserted through a syringe into an airtight septum, thus preventing ethylene escape. […] ACCO:Fe(II) (final concentrations 10 μM ACCO and 5 μM Fe(II)) was injected by syringe into a ½ dram vial covered with a septum with no headspace. The reaction was quenched as described above. A 10 mL syringe filled with air was used to transfer the reaction mixture to a 10 mL test tube covered with a septum using a cannula. The test tube was stirred vigorously for at least 4 hours before ethylene analysis. Ethylene was measured by injecting 2 mL of the headspace onto a GC equipped with a RT-Alumina GC column (final sample size was 250 μL). Ethylene was separated using ultrapure helium (grade 5) as the carrier gas at 40° C. detected by flame ionization (FID). The data were collected and the peak area was determined. Calibration for ethylene was done with Scotty IV mix 3 hydrocarbon standard (Scotty Specialty Gases). The ppm of ethylene was converted to nanomoles of ethylene per unit volume using the ideal gas law. Dilution of ethylene during sampling was taken into account in the calculations.
# The extent of uncoupling for ACCO with both cyclic and acyclic substrate analogs was determined by comparing the amount of O2 consumed and product, either ethylene or CO2, formed. All reactions were carried out at saturating substrate and ascorbate concentrations to minimize potential O2 reaction in the absence of substrate. […] O2 measurements were quenched during or just as the linear phase of the reaction began to fall off due to either loss of Fe(II) from the enzyme or possible enzyme inactivation. The results distinguish between amounts of uncoupling.
# For cyclic substrate analogs and ACC, the stoichiometry was determined by comparing O2 consumption with ethylene formation by GC-FID. […] The stoichiometry of O2 consumed to ethylene produced for ACC was 1.44 and to CO2 produced was 1.18, which is identical to that reported by Dong, et. al (Dong et al., 1992).
# ACCO:Fe(II) = biological target: T2, ACCO:Fe(II) (Solanum lycopersicum, UniProt P05116); assay: Ethylene trapping assay: substrate turnover by ACCO:Fe(II), ethylene trapped as dibromoethane, GC-MS; format: biochemical, Lycopersicon esculentum; conditions: for Amount of ethylene formed during the reaction time relative to reaction with ACC: 1 hr incubation with ACCO:Fe(II); for Ethylene produced relative to predicted ethylene during the reaction time course: prediction from kcat
# T2 construct: made in house; host or cells: Escherichia coli BL21 (DE3)pLysS
# T2 sequence (P05116 whole entry): as above
# Protocol: For detection of CO2, trace radiolabeled compound was used as appropriate. A small vial containing the reaction mixture minus enzyme was placed along side of another small vial containing the ethylene or CO2 trap. Both vials were placed in a large vial, which was capped with a septum. ACCO:Fe(II) was introduced into the reaction vial with a syringe and both the reaction vial and trap vial were stirred for 1 h. For [^14C]—CO2 trapping, a 1 mL solution of freshly prepared 10 M NaOH was used as the trapping agent. At the end of the reaction, the trap was removed and added to 15 mL scintillation fluid (Hionic-Fluor, Perkin Elmer) and radioactivity determined by scintillation counting. For ethylene, a […] solution of Br2 in CCl4 was used as the trap. A small amount of 2,5-dibromohexane was added to the trap as an internal standard. At the completion of the reaction, a small excess of 2,3-dimethyl-2-butene was added to the trap to quench unreacted Br2, and the trap was analyzed by GC-MS. Dibromoethane purchased from Aldrich was used as a standard.
# The ability of ACCO to turnover ACC or the cyclic substrate analogs (MeACC, ACC-NH2, or ACC-OMe) was determined by the formation of ethylene. Each substrate analog or ACC was incubated for 1 hr with ACCO:Fe(II) in a closed reaction vial containing an ethylene trap that would convert ethylene to dibromoethane. At the end of the reaction time, the ethylene trap was quenched and analyzed for dibromoethane by GC-MS. Reactions with BSA/Fe(II) were used as a control for non-enzymatic ethylene formation. The formation of ethylene was detected in the reaction vials of ACC and all the cyclic analogs in the presence of ACCO:Fe(II). No ethylene was detected in any of the BSA/Fe(II) reactions. The amount of ethylene formed during the reaction time from the cyclic analogs was lower than that from the reaction with ACC (MeACC=14%, ACCNH2=13%, ACC-OMe=79%). If the rates of O2 consumption for the reactions with the different substrates are considered, the kcat for ACC-OMe is approximately 75% of that for ACC, which would be consistent with the amount of ethylene produced during the time course of the reaction. […] Although the purity of both MeACC and ACCNH2 by elemental analysis was determined >95%, it is possible that a small amount of contaminating ACC could be responsible for the ethylene formed in these reactions. To determine whether ethylene was being formed from the substrate analog and not from contaminating ACC, reactions with each analog were done in the presence of increasing concentration of ACCO:Fe(II). In the case of a small amount of contamination where the ACC would be quickly depleted during the reaction, the result would be a non-linear dependence of ethylene production with increasing ACCO concentration.
# ACC Oxidase (ACCO, ACO1) = biological target: T3, ACC Oxidase (ACCO, ACO1) (Solanum lycopersicum, UniProt P05116); assay: Initial velocity assays (rate of oxygen consumption) with ACC or substrate analogs; format: biochemical, Lycopersicon esculentum; conditions: for Km compared to ACC (in words) / Km increased by factor compared with ACC / Rate of O2 consumption by ACCO compared with ACC (in words): from Table 1; for Km / Vmax: O2 consumption, 25° C., pH 7.2, [Ascorbate] = 30 mM, [O2] = 258 μM, [CO2/bicarbonate] = 20 mM
# T3 construct: made in house; host or cells: Escherichia coli BL21 (DE3)pLysS
# T3 sequence (P05116 whole entry): as above
# Protocol: ACCO from Lycopersicon esculentum (ACO1) was produced in Escherichia coli strain BL21 (DE3)pLysS and purified by a two-column purification procedure as previously described (Thrower, J. S. et al., 2001).
# Initial velocities were measured by the rate of oxygen consumption at 25° C., pH 7.2, using a YSI model 5300 biological oxygen monitor as previously described (Thrower 2001) with minor modifications. Standard reaction mixture (1 ml) contained 100 mM MOPS, pH 7.2, 20 mM NaHCO3, 100 mM NaCl, 20 mM sodium ascorbate, 0.1 mg/ml BSA, and ACC or substrate analog at various concentrations. Oxygen concentrations were kept at atmospheric concentration and determined using the oxygen monitor that was calibrated with air saturated water (258 μM oxygen at 25° C.). Reactions were initiated with 2 μL ACCO reconstituted with equimolar Fe(NH4)2(SO4)2. Data from initial velocity experiments with varying substrate concentrations were fitted to the Michaelis-Menton equation using the program Kalideograph.
# Either cyclic substrate analogs (including inhibitor Me-ACC, ACC-NH2, or ACC-OMe) or acyclic substrate analogs (AIB, D-Ala, or Gly) were used. […] Ascorbate and oxygen concentrations were kept constant at 30 mM and ˜258 μM, respectively.
# ACCO = biological target: T4, ACCO (Solanum lycopersicum, UniProt P05116); assay: Labeling of ACCO by radiolabeled N-Me-ACC (centrifugal filtration, scintillation counting); format: binding, Lycopersicon esculentum; conditions: approximately equal concentrations, standard reaction conditions, quenched with Ferrozine
# T4 construct: made in house; host or cells: Escherichia coli BL21 (DE3)pLysS
# T4 sequence (P05116 whole entry): as above
# Protocol: Radiolabeled N-Me-ACC was incubated with ACCO (approximately equal concentrations) in standard reaction conditions. The reaction was quenched using Ferrozine. The solution was placed in a Millipore 10K NMWL Ultrafree®-MC Centrifugal Filter Unit and centrifuged for 15 min. at 14K rpm. The remaining protein (˜20 μL) was washed with 3×1 mL of either water, reaction buffer, or 0.1% TFA by repeated centrifugation. The protein was collected and radioactivity determined by scintillation counting in 12 mL EcoLite^+ scintillation fluid.
SMILES,Products detected (ACC Oxidase),"Ratio O2 consumed to product formed, O2:CO2 (ACC Oxidase)","Ratio O2 consumed to product formed, O2:ethylene (ACC Oxidase)",Amount of ethylene formed during the reaction time relative to reaction with ACC (ACCO:Fe(II)) [%],Ethylene produced relative to predicted ethylene during the reaction time course (ACCO:Fe(II)),"Km compared to ACC (in words) (ACC Oxidase (ACCO, ACO1))","kcat slower than the kcat for ACC (ACC Oxidase (ACCO, ACO1); from rates of O2 consumption) [%]","Km (ACC Oxidase (ACCO, ACO1)) [µM]","Vmax (ACC Oxidase (ACCO, ACO1)) [min⁻¹]","Km increased by factor compared with ACC (ACC Oxidase (ACCO, ACO1)) [fold]","kcat as percent of that for ACC (ACC Oxidase (ACCO, ACO1); from rates of O2 consumption)","Rate of O2 consumption by ACCO compared with ACC (in words) (ACC Oxidase (ACCO, ACO1))",Labeling of ACCO by radiolabeled compound (ACCO)
"NC1(C(=O)O)CC1 [ACC, 1-aminocyclopropane-1-carboxylic acid, reference compound]","Ethylene, CO2",1.18 and 1.2 and 1.18 ± 0.17,1.44 and 1.44 ± 0.22,,,,,,,,,,
NC(=O)C1(N)CC1 [ACC-NH2],Ethylene,,4.40 ± 1.56,13,about half the predicted ethylene,not significantly altered,~30,,,,,,
COC(=O)C1(N)CC1 [ACC-OMe],Ethylene,,1.81 ± 0.72,79,,,,2760 ± 550,27.3 ± 1.7,~28,approximately 75%,,
"CC(C)(N)C(=O)O [AIB, α-aminoisobutyric acid]","Acetone, CO2",1.7 and 1.68 ± 0.12,,,,,,,,9.3,,comparable,
"C[C@@H](N)C(=O)O [D-Alanine, D-alanine]","Acetaldehyde, CO2",3.46 ± 0.51,,,,,,,,44.7,,comparable,
"NCC(=O)O [Glycine, glycine]",CO2,,,,,,,,,,,,
CNC1(C(=O)O)CC1 [N-Me-ACC],Ethylene,,3.17 ± 0.86,14,about half the predicted ethylene,not significantly altered,~30,107 ± 21,12.2 ± 0.5,,,,irreversibly labels ACCO in a short period of time
